# Measured values as given in US4748254A, “Mixed carboxylato platinum (II) complexes” (priority 1984, dated 1988).
# Experiments:
# hepatoma 22a = assay: Increase of lifespan of mice with grafted hepatoma 22a; assay type: in vivo
# Experimental: (§1) As the criteria for the antitumor activity for leukosises and ascytic forms of tumors the increase of the lifespan of treated animals (ILS, %)
# (§2) T--average lifespan of treated animals;
# (§3) C--average lifespan of control animals;
# (§4) The experiments were carried out on line mice and their hybrides of the first generation. […]
# lymphoid leukosis L-1210 [1] = assay: Increase of lifespan of mice with lymphoid leukosis L-1210; assay type: in vivo
# Experimental: as §1, §2, §3
# The experiments were carried out on line mice and their hybrides of the first generation. […] The compounds were administered to animals intraperitoneally in a 5% solution of glucose once or daily over 5 days within the time limits adopted in experimental studies of corresponding tumors.
# plasmacytoma MOPC-406 = assay: Increase of lifespan of mice with plasmacytoma MOPC-406; assay type: in vivo; settings: for curing of animals with plasmocytoma MOPC-406: in words
# Experimental: as §1, §2, §3, §4
# [2] = tested on: mammal adenocarcinoma Ca 755; assay: Tumor growth inhibition of mammal adenocarcinoma Ca 755; assay type: in vivo, mice
# Experimental: and for a solid tumor--tumor growth inhibition (TGI, %)
# O--volume of tumors in the group of treated animals;
# K--volume of tumors in the control group were employed.
# as §4
# hemocytoblastosis La = assay: Increase of lifespan of mice with hemocytoblastosis La; assay type: in vivo
# Experimental: as §1, §2, §3, §4
# [3] = Storage stability and hygroscopicity; assay type: physicochemical; settings: in words
# [4] = tested on: plasmacytoma of mice ADJ/PC6A; settings: cited from earlier work
# [5] = cited from earlier work
# [6] = cited from earlier work; remark: listed apart in the source
# lymphoid leukosis L-1210 [7] = assay: Increase of lifespan of mice with lymphoid leukosis L-1210; assay type: in vivo; settings: 3 mg/kg i.p. in 0.9% NaCl, days of treatment 1-5
# tumors = settings: in words; cited from earlier work
# [8] = tested on: graft strains of tumors and leukoses of mice; assay: Antitumor activity, overall statement; assay type: in vivo; settings: in words
# Experimental: The antitumor activity of the compounds according to the present invention has been studied on a number of strains of grafted solid tumors and leukosises of mice: plasmacytoma MOPC-406, lymphoid leukosis L-1210, hemocytoblastosis La, hepatoma 22a, mammal adenocarcinoma Ca 755.
# The experiments were carried out on line mice and their hybrides of the first generation. […] The compounds were administered to animals intraperitoneally in a 5% solution of glucose once or daily over 5 days within the time limits adopted in experimental studies of corresponding tumors. […]
# [9] = 20-40 mg/kg i.p., days of treatment 2-6
# [10] = 30 mg/kg i.p., days of treatment 2-6
# [11] = 15-25 mg/kg i.p., days of treatment 2-6
# [12] = 5 mg/kg i.p. in 0.9% NaCl, day 3
# [13] = 2 mg/kg i.p. in 0.9% NaCl, days of treatment 2-5
# [14] = 20 mg/kg i.p., days of treatment 7-11
# [15] = 20-25 mg/kg i.p., days of treatment 2-6
compound,measurement,setting,value
"N.NCC1CCCO1.O.O=C1C[C@H](O)C(=O)[O][Pt][O]1 [Example 21, S(-)-malatoammine(tetrahydrofurfurylamine)platinum(II)]","Increase of lifespan, %, Hepatoma 22a",hepatoma 22a; [9],340%
same,"number of cured animals / animals employed, Hepatoma 22a",hepatoma 22a; [9],2/6
same,curing of animals with hepatoma 22a,hepatoma 22a; in words,cure a portion of animals
same,"Increase of lifespan, %, L-1210",lymphoid leukosis L-1210 [1]; [9],120%
same,"Increase of lifespan, %, MOPC-406",plasmacytoma MOPC-406; [9],280%
same,"number of cured animals / animals employed, MOPC-406",plasmacytoma MOPC-406; [9],3/6
same,curing of animals with plasmocytoma MOPC-406,plasmacytoma MOPC-406,ensure curing of a certain number of animals (up to 100%)
same,"Tumor growth inhibition, %, Ca-755",[2]; [9],95%
"[NH2][Pt]1([NH]C2CCCCC2)[O]C(=O)CCC(=O)[O]1 [Example 15, succinatoammine(cyclohexylamine)platinum(II)]","Increase of lifespan, %, L-1210",lymphoid leukosis L-1210 [1]; [10],108%
same,"Increase of lifespan, %, L-1210","lymphoid leukosis L-1210 [1]; 150 mg/kg i.p., day 2",120%
same,"Tumor growth inhibition, %, Ca-755",[2]; [10],72%
"[NH2][Pt]1([NH]C2CCCC2)[O]C(=O)CC(=O)[O]1 [Example 6, malonatoammine(cyclopentylamine)platinum(II)]","Increase of lifespan, %, Hepatoma 22a",hepatoma 22a; [11],140%
same,"number of cured animals / animals employed, Hepatoma 22a",hepatoma 22a; [11],2/6
same,curing of animals with hepatoma 22a,hepatoma 22a; in words,cure a portion of animals
same,"Increase of lifespan, %, L-1210",lymphoid leukosis L-1210 [1]; [11],36%
same,"Increase of lifespan, %, L-1210","lymphoid leukosis L-1210 [1]; 40-60 mg/kg i.p., day 2",45%
same,"Increase of lifespan, %, La",hemocytoblastosis La; [11],21%
same,"Increase of lifespan, %, MOPC-406","plasmacytoma MOPC-406; 50 mg/kg i.p., day 7",329%
same,"number of cured animals / animals employed, MOPC-406","plasmacytoma MOPC-406; 50 mg/kg i.p., day 7",3/6
same,"Increase of lifespan, %, MOPC-406",plasmacytoma MOPC-406; [11],286%
same,"number of cured animals / animals employed, MOPC-406",plasmacytoma MOPC-406; [11],3/6
same,"Increase of lifespan, %, MOPC-406","plasmacytoma MOPC-406; 40-60 mg/kg i.p., day 2",300%
same,"number of cured animals / animals employed, MOPC-406","plasmacytoma MOPC-406; 40-60 mg/kg i.p., day 2",5/6
same,curing of animals with plasmocytoma MOPC-406,plasmacytoma MOPC-406,ensure curing of a certain number of animals (up to 100%)
same,"Tumor growth inhibition, %, Ca-755",[2]; [11],76%
same,hygroscopicity,[3],very hygroscopic
[Cl][Pt-2]([Cl])([NH2+]C1CCCC1)[NH2+]C1CCCC1 [cis-[PtCl2 (cyclo-C5 H9 NH2)2]],ID90 (dose inhibiting growth of tumors by 90%),"[4]; plasmacytoma ADJ/PC6A, mice",2.4 mg/kg
same,therapeutical index TI=LD50/ID90,"[4]; plasmacytoma ADJ/PC6A, mice",200
same,solubility in water,"[5]; prior art compound, in words",substantially insoluble in water
same,therapeutic response or side effect,[6]; fine suspensions in sesame oil or aqueous solloids stabilized by polyvinylpyrrolidone,no therapeutic response or a side effect
same,local irritation,[6]; in vivo,local irritation upon administration of an oily suspension
same,retention at the spot of the injection,[6]; in vivo,substantially remains at the spot of the injection
"N.NC1CCC1.O=C1[O][Pt][O]C(=O)C1O [Example 3, (hydroxymalonato)ammine(cyclobutylamine)platinum(II)]","Increase of lifespan, %, L-1210","lymphoid leukosis L-1210 [1]; 25 mg/kg i.p., days of treatment 2-6",100%
same,"Increase of lifespan, %, L-1210","lymphoid leukosis L-1210 [1]; 60 mg/kg i.p., day 2",71%
same,"Tumor growth inhibition, %, Ca-755","[2]; 20 mg/kg i.p., days of treatment 2-6",70%
"N.N.[Cl][Pt][Cl] [DDP, cis-dichlorodiammineplatinum(II), reference compound]","Increase of lifespan, %, Hepatoma 22a",hepatoma 22a; [12],120%
same,"number of cured animals / animals employed, Hepatoma 22a",hepatoma 22a; [12],0/6
same,curing of animals with hepatoma 22a,hepatoma 22a; in words,no curing of animals
same,"Increase of lifespan, %, La","hemocytoblastosis La; 8 mg/kg i.p. in 0.9% NaCl, day 1",200%
same,"Increase of lifespan, %, MOPC-406",plasmacytoma MOPC-406; [13],140%
same,"number of cured animals / animals employed, MOPC-406",plasmacytoma MOPC-406; [13],0/6
same,curing of animals with plasmocytoma MOPC-406,plasmacytoma MOPC-406,no curing of animals
same,"Tumor growth inhibition, %, Ca-755","[2]; 8 mg/kg i.p. in 0.9% NaCl, day 2",95%
same,"Increase of lifespan, %, L-1210",lymphoid leukosis L-1210 [7],116%
same,ID90 (dose inhibiting growth of tumors by 90%),"[4]; plasmacytoma ADJ/PC6A, mice",1.6 mg/kg
same,antitumor activity,tumors,high antitumor activity
same,spectrum of action on diverse tumors,tumors,remarkably wide spectrum of action on diverse tumors
N.NC1CCCC1.[Cl][Pt][Cl] [cis-[PtCl2 NH3 (cyclo-C5 H9 NH2)]],toxicity compared with DDP,"[4]; in words, versus DDP",slightly more toxic than DDP
same,LD50,"[4]; mice, plasmacytoma ADJ/PC6A tests",11.0 mg/kg
same,ID90 (dose inhibiting growth of tumors by 90%),"[4]; plasmacytoma ADJ/PC6A, mice",0.5 mg/kg
same,"90% tumor growth inhibiting dose, times less than that of DDP","[4]; plasmacytoma ADJ/PC6A, versus DDP",3 times
same,"90% tumor growth inhibiting dose, times less than that of cis-[PtCl2 (cyclo-C5 H9 NH2)2 ]","[4]; plasmacytoma ADJ/PC6A, versus cis-[PtCl2 (cyclo-C5 H9 NH2)2 ]",~5 times
same,solubility in 0.9% NaCl,[5]; 0.9% NaCl,about 1 mg/ml
same,advantage over parent compounds with identical ligands,tumors,absence of advantages of this mixed complex as compared to the parent compounds with identical ligands
S(-)malatoammine(cyclopentylamine)platinum(II) [Example 4],"Increase of lifespan, %, Hepatoma 22a",hepatoma 22a; [11],225%
same,"number of cured animals / animals employed, Hepatoma 22a",hepatoma 22a; [11],4/6
same,curing of animals with hepatoma 22a,hepatoma 22a; in words,cure a portion of animals
same,curing of animals with hepatoma 22a,hepatoma 22a; optimal doses,up to 66%
same,"Increase of lifespan, %, L-1210",lymphoid leukosis L-1210 [1]; [11],195%
same,"Increase of lifespan, %, L-1210","lymphoid leukosis L-1210 [1]; 60-80 mg/kg i.p., day 2",101%
same,extension of life span of animals with leukemia L-1210,lymphoid leukosis L-1210 [1]; optimal doses,195%
same,"Increase of lifespan, %, La",hemocytoblastosis La; [11],113%
same,lifespan of animals with hemocytoblastosis La,hemocytoblastosis La; in words,considerably extends the lifespan
same,extension of life span of animals with hemocytoblastosis La,hemocytoblastosis La; optimal doses,113%
same,"Increase of lifespan, %, MOPC-406",plasmacytoma MOPC-406; [14],356%
same,"number of cured animals / animals employed, MOPC-406",plasmacytoma MOPC-406; [14],3/6
same,"Increase of lifespan, %, MOPC-406",plasmacytoma MOPC-406; [11],327%
same,"number of cured animals / animals employed, MOPC-406",plasmacytoma MOPC-406; [11],6/6
same,"Increase of lifespan, %, MOPC-406","plasmacytoma MOPC-406; 60-80 mg/kg i.p., day 2",310%
same,"number of cured animals / animals employed, MOPC-406","plasmacytoma MOPC-406; 60-80 mg/kg i.p., day 2",5/6
same,curing of animals with plasmocytoma MOPC-406,plasmacytoma MOPC-406,ensure curing of a certain number of animals (up to 100%)
same,curing of animals with plasmacytoma MOPC-406,plasmacytoma MOPC-406; optimal doses,up to 100%
same,"Tumor growth inhibition, %, Ca-755",[2]; [11],96%
same,hygroscopicity,[3],hydroscopic
same,antitumor activity,[8],highest antitumor activity among the compounds according to the present invention
"N.NC1CC1.O=C([O-])CC(=O)[O-].[Pt+2] [Example 1, malonatoammine(cyclopropylamine)platinum(II)]","Increase of lifespan, %, Hepatoma 22a",hepatoma 22a; [11],85%
same,"number of cured animals / animals employed, Hepatoma 22a",hepatoma 22a; [11],0/6
same,"Increase of lifespan, %, L-1210",lymphoid leukosis L-1210 [1]; [11],39%
same,"Increase of lifespan, %, L-1210","lymphoid leukosis L-1210 [1]; 60-70 mg/kg i.p., day 2",48%
same,"Increase of lifespan, %, La",hemocytoblastosis La; [11],29%
same,"Increase of lifespan, %, MOPC-406","plasmacytoma MOPC-406; 60 mg/kg i.p., day 7",150%
same,"number of cured animals / animals employed, MOPC-406","plasmacytoma MOPC-406; 60 mg/kg i.p., day 7",1/6
same,"Increase of lifespan, %, MOPC-406",plasmacytoma MOPC-406; [11],268%
same,"number of cured animals / animals employed, MOPC-406",plasmacytoma MOPC-406; [11],2/6
same,"Increase of lifespan, %, MOPC-406","plasmacytoma MOPC-406; 60-70 mg/kg i.p., day 2",177%
same,"number of cured animals / animals employed, MOPC-406","plasmacytoma MOPC-406; 60-70 mg/kg i.p., day 2",1/6
same,curing of animals with plasmocytoma MOPC-406,plasmacytoma MOPC-406,ensure curing of a certain number of animals (up to 100%)
same,"Tumor growth inhibition, %, Ca-755",[2]; [11],89%
NC1CCCCC1.NC1CCCCC1.[Cl][Pt][Cl] [complex with cyclohexylamine],therapeutical index TI=LD50/ID90,"[4]; plasmacytoma ADJ/PC6A, mice",above 267
RS-malatoammine(cyclopentylamine)platinum(II) [Example 5],"Increase of lifespan, %, Hepatoma 22a",hepatoma 22a; [15],322%
same,"number of cured animals / animals employed, Hepatoma 22a",hepatoma 22a; [15],2/6
same,curing of animals with hepatoma 22a,hepatoma 22a; in words,cure a portion of animals
same,"Increase of lifespan, %, L-1210",lymphoid leukosis L-1210 [1]; [15],156%
same,"Increase of lifespan, %, MOPC-406",plasmacytoma MOPC-406; [15],350%
same,"number of cured animals / animals employed, MOPC-406",plasmacytoma MOPC-406; [15],4/6
same,curing of animals with plasmocytoma MOPC-406,plasmacytoma MOPC-406,ensure curing of a certain number of animals (up to 100%)
same,"Tumor growth inhibition, %, Ca-755",[2]; [15],95%
